We go through 14 molecules from patent publication US10501473B2, “Fused heterocyclic ring compounds and method of treating retinal disease using same” (THE INDUSTRY & ACADEMIC COOPERATION IN CHUNGNAM NATIONAL …, priority 2014, dated 2019).

For series [1], the target named is T1, RIPK1 (receptor-interacting serine/threonine-protein kinase 1) (Homo sapiens (Human), UniProt Q13546). The experiment in a line: IC50 to RIPK1, immuno-precipitated enzyme with [32P]γ-ATP. It is filed as biochemical. As to conditions: 10-0.05 μM, 100 μM ATP. The protocol: RIPK1 enzyme immuno-precipitated in HEK293 (Human Embryonic Kidney 293) cell lysate was used as a kinase. The experiment was performed according to the method described in Cell. 12; 137(6):1112-23(2009).
T1 sequence (Q13546 whole entry, species assumed): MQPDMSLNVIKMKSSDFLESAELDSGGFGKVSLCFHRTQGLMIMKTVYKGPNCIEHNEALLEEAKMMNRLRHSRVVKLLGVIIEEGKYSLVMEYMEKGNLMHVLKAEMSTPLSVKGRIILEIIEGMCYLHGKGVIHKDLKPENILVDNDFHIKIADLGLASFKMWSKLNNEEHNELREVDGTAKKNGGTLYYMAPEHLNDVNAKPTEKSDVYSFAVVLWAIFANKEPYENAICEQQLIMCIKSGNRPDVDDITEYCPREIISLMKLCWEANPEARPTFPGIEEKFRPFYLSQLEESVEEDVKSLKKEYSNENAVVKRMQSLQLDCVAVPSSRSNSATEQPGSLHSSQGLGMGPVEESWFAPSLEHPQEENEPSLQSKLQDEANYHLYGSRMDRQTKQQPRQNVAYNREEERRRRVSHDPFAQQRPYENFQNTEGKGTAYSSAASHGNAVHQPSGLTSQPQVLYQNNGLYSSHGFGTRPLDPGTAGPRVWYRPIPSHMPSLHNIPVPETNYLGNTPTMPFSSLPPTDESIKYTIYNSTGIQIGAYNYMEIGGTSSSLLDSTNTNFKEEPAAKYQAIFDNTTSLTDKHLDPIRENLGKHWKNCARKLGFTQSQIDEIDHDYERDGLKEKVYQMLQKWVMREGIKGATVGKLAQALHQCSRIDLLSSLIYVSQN
RIPK1 protein was over-expressed in HEK293 cell line, to which lysis buffer (50 mM Tris-Cl [pH 8.0], 150 mM NaCl, 1 mM EDTA, 1% NP-40, 0.4 mM phenylmethylsulfonyl fluoride (PMSF)) was added for cell lysis. Centrifugation was performed at 13,000 rpm for 10 minutes to separate the supernatant. RIPK1 monoclonal antibody (610459, BD Bioscience) and A/G agarose beads (sc-2003, Santa Cruz Biotechnology) were added thereto, followed by immuno-precipitation in a 4° C. rotator for 12 hours.
The compounds of examples of the invention were diluted at the different concentrations of 10 μM˜0.05 μM (10, 5, 1, 0.5, 0.1, 0.05 uM) and mixed with the immuno-precipitated RIPK1 enzyme, followed by reaction in a 24° C. constant-temperature water bath for 15 minutes. Additional reaction was induced for 30 minutes at 30° C. after 100 μM of ATP and 10 μCi[^32P] γ-ATP were added thereto. The reaction mixture was washed with buffer once, to which protein loading buffer was added, followed by heating at 100° C. for 3 minutes. The reaction mixture was then loaded on 8% SDS-PAGE gel. Radioactive image of the phosphorylated RIPK1 was detected with FLA-7000 (GE healthcare). The image Quant TL program was used for the quantification. Based on the results, IC50 of the compound was calculated by using sigmaplot 10.0 program.

In series [2] the test system is RGC-5 (rat ganglion cell). The series can be described thus: Retinal nerve protection under oxygen-glucose deprivation (OGD), LDH assay. It is filed as cell-based. As to conditions: RGC-5, OGD 15 hours, compound 20 μM, DMSO control = 100%. In a few lines:
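RGC-5 cells switched to glucose-free DMEM with compound (20 μM) or 0.1% DMSO and held 15 h at 37° C under anaerobic gas (10% H2, 5% CO2, 85% N2). Cell death from released LDH (formazan, 490 nm), scaled with OGD control as 100% and normal-medium cells as 0%; triplicate wells, experiments in triplicate.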

In series [3] the test system is dry macular degeneration rat model. The series can be described thus: Retinal cell protection by instillation, sodium iodate rat model, H&E staining. As to conditions: SI ip 50 mg/kg, eye drops 50 μl twice a day, FIG. 2. Type of series: in vivo. On the procedure:
From 3 days before the administration of sodium iodate (SI) to the 8-week-old dry macular degeneration rat model, the compound of the invention was instillated twice a day (50 μl/each eye drop instillation) and SI (ip, 50 mg/kg) was administered once. Additionally, the compound was instillated twice a day for 7 days. 7 days later, the eyeballs were extracted, followed by H&E staining to investigate retinal cell protection effect (n=3, 6 eyes). FIG. 1 is a schematic diagram illustrating the construction of the dry macular degeneration rat model and the eye drop instillation of the compounds of the invention.
The eyeballs were extracted from the dry macular degeneration rat model constructed by the same manner as described in FIG. 1, followed by histostaining.
To measure the survival rate (%) of retinal pigment epithelial cells, the eyeballs extracted from the experimental rats were fixed in 4% glutaraldehyde solution for 4 hours and embedded in paraffin. Tissue sections were prepared in 5 μm thickness, followed by H&E (Hematoxylin and Eosin) staining. Photomicrographs were taken of 2-3 different areas within the RPE (retinal pigment epithelium) layer on 100× optical microscope (Leica), and the number of stained cells was counted. The number of RPE cells in the normal rat group was regarded as 100%, based on which the survival rate was calculated.

Series [4] relates to retina of rats. As to conditions: retinal detachment; cited from earlier work.
In series [5] the test system is RGC-5 (rat ganglion cell-5). The series can be described thus: Retinal neuron protection under necroptosis inducing (TCZ; TNFα+cycloheximide+zVAD) condition, LDH assay. Type of series: cell-based. As to conditions: RGC-5, TCZ 15 hours, compound 20 μM, DMSO control = 100%. The protocol: The following experiment was performed to evaluate the retinal neuron protection effect of the compounds of the invention under necroptosis inducing condition.
The retinal ganglion cell line RGC-5 (rat ganglion cell-5) was cultured in DMEM (Dulbecco's modified Eagle's medium) supplemented with 10% FBS (fetal bovine serum) and 1% penicillin/streptomycin. The cells were distributed in a 96-well plate at the density of 8×10^3 cells/well, followed by culture in a 37° C., CO2 incubator for 12 hours. The medium supplemented with TNFα (10 ng/ml), cycloheximide (10 μg/ml), and zVAD (10 μM) (TCZ) was treated with DMSO (0.1%) alone (control) or with the compounds of the invention (20 μM), followed by additional culture in a 37° C., CO2 incubator for 15 hours to induce cell death.
The level of cell death was measured by LDH (lactate dehydrogenase, Roche) assay. The level of the control LDH under TCZ condition was regarded as 100%, and the level of LDH in the cell group cultured in normal medium (10% FBS, DMEM) for the same time was used for the measurement of the relative rate of cell death. The compounds of examples of the invention were treated to wells, each compound for three wells, and then each experiment was performed in triplicate.

Series [6] has as its target T1, RIPK1 (receptor-interacting serine/threonine-protein kinase 1). The experiment in a line: RIPK1 inhibitory activity, autophosphorylation of immuno-precipitated RIPK1 with [32P]γ-ATP. Type of series: biochemical. As to conditions: compound 100 μM; remaining RIPK1 phosphorylation. In a few lines: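 RIPK1 overexpressed in HEK293, immunoprecipitated, preincubated with compound 15 min at 24 °C in HEPES pH 7.6 kinase buffer with Mg2+/Mn2+. Autophosphorylation run 30 min at 30 °C with 100 μM ATP plus [32P]γ-ATP, resolved by SDS-PAGE and quantified by phosphorimaging.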

For series [7], the system named is dry macular degeneration rabbit model. The series can be described thus: Protection against retinal layer thickness reduction by instillation 2 (ONL thickness). It is filed as in vivo. As to conditions: FIG. 8. On the procedure:
The eyeballs were extracted from the dry macular degeneration rabbit model used in Experimental Example 7, and the thickness of ONL was measured.

Series [8] is described as follows: Solubility in water of doxycycline forms. Type of series: physicochemical. As to conditions: listed as MH.
In series [9] the test system is retinal degeneration rabbit model. The series can be described thus: Drug efficacy by ERG (electroretinography) 1. It is filed as in vivo. On the procedure: The normal rabbit was anesthetized, which was adapted for 20 minutes in a dark room. Retinal potential difference was measured by ERG equipment. Electroretinography is a method to observe the response of photoreceptor cells with two light intensities. Particularly, A and B waves were measured from 100 to 10000 mcd, and the retinal potential difference measured at 3000 mcd. Drug efficacy was evaluated by observing the photoreceptor cells, for which the stronger response to wave A was selected.
Evaluation of candidate substances for dry macular degeneration was performed using a retinal degeneration rabbit model. The compounds of Comparative Examples 2 and 3 were used as comparative compounds. […] The compound of Comparative Example 3 was orally administered once a day (10 mg/rabbit, dissolved in saline).

Values joined by “and” are separate entries in the source; they are usually repeats but may differ in a detail not shown here. Equal entries are not always repeated.

For `CN1C(=O)C(Cc2c[nH]c3ccccc23)NC1=S` (stereo not shown) [Comparative Example 1, 5-((1H-indole-3-yl)methyl)-3-methyl-2-thioxothioxoimidazolidine-4-one, reference compound], the IC50 (as a rule, the midpoint of a concentration-inhibition curve) in series [1] worked out at 95.5 nM. Moreover, the “Death of retinal nerve cell (%)” value in series [2] is 89.5% and 89.5 ± 10.5%. Further, the “retina degeneration by histostaining” value in series [3] is “retina degeneration was not observed”. In series [4], the “phosphorylation of RIPK1 in the retina” value is listed as “phosphorylation was reduced” and the photoreceptor degeneration entry is on record as “photoreceptor degeneration was also protected”.

On to `O=C(c1cc2c(-c3ccc(F)cc3)cccc2s1)N1CCCOCC1` [Example 52, (4-(4-fluorophenyl)benzo[b]thiophene-2-yl) (1,4-oxazepane-4-yl)methanone], for which the “Death of retinal nerve cell (%)” value was 80.8 ± 2.8% in [5] and 52.8 ± 4.4% in [2]. Moreover, the IC50 in [1] amounted to 8170 nM. This molecule also registered an activity at 100 µM in series [6] of 5.5 ± 4.9%.

In turn, `O=C(c1cc2c(-c3ccc(F)cc3F)cccc2s1)N1CCOCC1` [Example 63, (4-(2,4-difluorophenyl)benzo[b]thiophene-2-yl)(morpholino)methanone] had an IC50 in series [1] of 230 nM. Moreover, the “Death of retinal nerve cell (%)” value in [2] amounted to 48.3 ± 13.7%. Moreover, the activity at 100 µM in series [6] is 1.5 ± 0.7%.

Regarding `O=C(c1cc2c(-c3ccc(F)cc3)cccc2s1)N1CCOCC1` [Example 39, (4-(4-fluorophenyl)benzo[b]thiophene-2-yl)(morpholino)methanone], the “Death of retinal nerve cell (%)” value in series [5] was 74.9 ± 9.1%; in series [2], 46.2 ± 0.8%. In series [1], the IC50 stood at 193 nM. In addition, the “retina degeneration by histostaining” value in series [3] was “retina degeneration was not observed”. Also, in series [7], the “retinal layer thickness protection effect” value was 70˜80% and 70-80%. In [6], this molecule had an activity at 100 µM of 3.7 ± 2.6%.

`C[C@H]1c2cccc(O)c2C(=O)C2=C(O)[C@]3(O)C(=O)C(C(N)=O)=C(O)[C@@H](N(C)C)[C@@H]3[C@@H](O)[C@@H]21` [Comparative Example3-MH, doxycycline]: in series [8], the solubility in water result is “not dissolved in water”. Further, the “response compared to normal (100%)” value is on record as 74.1% in [9] (ERG, FIG. 11, listed as 3-MH) and 74.1% in series [9] (ERG, FIG. 11, listed as Comparative Example 3-MH). In addition, the Wave ratio in series [9] (SI model, ERG wave A after one week, eye drops 100 μl twice a day, Comparative Example 3 oral 10 mg/rabbit once a day, Normal = 1.00) stood at 0.74. Also, the “Drug efficacy (%)” value in series [9] (SI model, ERG, Normal = 100, Veh. = 0) is on record as 46%.

The molecule `O=C(c1cc2c(-c3ccoc3)cccc2s1)N1CCOCC1` [Example 75, (4-(furan-3-yl)benzo[b]thiophene-2-yl)(morpholino)methanone] returned an IC50 in series [1] of 73.4 nM. In [2], the “Death of retinal nerve cell (%)” value came to 41.7 ± 7.0%. The same molecule registered an activity at 100 µM in [6] of 3.5 ± 3.5%.

`O=C(c1cc2c(-c3cccc(F)c3)cccc2s1)N1CCOCC1` [Example 36, (4-(3-fluorophenyl)benzo[b]thiophene-2-yl)(morpholino)methanone] returned an IC50 in series [1] of 17.7 nM. Further, the “Death of retinal nerve cell (%)” value in series [2] was determined as 58.0 ± 3.8%. Moreover, the activity at 100 µM in series [6] amounted to 4 ± 2.8%.

`O=C(c1cc2c(-c3ccc(F)cc3)cccc2s1)N1CCSCC1` [Example 51, (4-(4-fluorophenyl)benzo[b]thiophene-2-yl)(thiomorpholino)methanone] came in with an IC50 in series [1] of 217 nM. In series [2], the “Death of retinal nerve cell (%)” value was 44.7 ± 6.3%. For the same molecule, the activity at 100 µM in series [6] is 2.5 ± 0.7%.

In turn, `O=C(c1cc2c(-c3ccccc3F)cccc2s1)N1CCOCC1` [Example 30, (4-(2-fluorophenyl)benzo[b]thiophene-2-yl)(morpholino)methanone] gave an IC50 in series [1] of 102 nM. The “Death of retinal nerve cell (%)” value in series [2] was determined as 51.0 ± 5.9%. Besides, the activity at 100 µM in series [6] turned out to be 0.4 ± 0.1%.

In series [1], `O=C(c1cc2c(-c3ccc(F)cc3)ccnc2s1)N1CCOCC1` [Example 4, (4-(4-fluorophenyl)thieno[2,3-b]pyridine-2-yl)(morpholino)methanone] registered an IC50 of 1120 nM. Besides, in [2], the “Death of retinal nerve cell (%)” value was 57.8 ± 8.9%. The molecule also had an activity at 100 µM in [6] of 3 ± 1.4%.

In series [1], `O=C(c1cc2c(-c3cccs3)cccc2s1)N1CCOCC1` [Example 74, morpholino(4-(thiophene-2-yl)benzo[b]thiophene-2-yl)methanone] returned an IC50 of 65.6 nM. Besides, the “Death of retinal nerve cell (%)” value in [2] worked out at 51.4 ± 10.3%. This molecule also came in with an activity at 100 µM in series [6] of 4%.

Consider `O=C(c1cc2c(-c3ccc(F)cc3)cccc2s1)N1CCCC1` [Example 35, (4-(4-fluorophenyl)benzo[b]thiophene-2-yl)(pyrrolidine-1-yl)methanone], for which the “Death of retinal nerve cell (%)” value in series [5] is on record as 89.2 ± 8.2%; in series [2], 90.0 ± 3.3%. Further, the IC50 in series [1] was 360 nM. Besides, the activity at 100 µM in series [6] amounted to 3.5 ± 2.1%.

As for `CN1C(=O)NC(Cc2c[nH]c3c(Cl)cccc23)C1=O` (stereo not shown) [Comparative Example 2, 5-((7-chloro-1H-indole-3-yl)methyl)-3-methylimidazolidine-2,4-dione, reference compound], the “Death of retinal nerve cell (%)” value in [2] was 73.5% and 73.5 ± 10.3%. In addition, in series [3], the “retina degeneration by histostaining” value is reported as “retina degeneration was not observed”.

The molecule `O=C(c1cc2c(-c3ccsc3)cccc2s1)N1CCOCC1` [Example 76, morpholino(4-(thiophene-3-yl)benzo[b]thiophene-2-yl)methanone] had an IC50 in series [1] of 61.2 nM. The activity at 100 µM in series [6] is 1.5 ± 0.7%.
